Reference: US20080311656A1, “Meiosis arrest in oocytes in vitro” (Novo Nordisk A/S, priority 2002, published 2008)
Entries after “also recorded” stand apart in the source; their conditions may differ.

How the values were obtained:
[1] = system: polar body extruded oocytes; experiment: Confocal laser microscopy for microfilaments and chromosome analysis; type: cell-based, human
Experimental: For localization of microfilaments, 39 polar body extruded oocytes (25 oocytes 48 hours after maturation in control medium and 14 oocytes after inhibitor removal) were fixed with 2.5% glutaraldehyde in cacodylate buffer for at least 2 hours, washed with PBS/1% BSA, placed into 0.1% Triton X-100 for 5 min and rinsed again with PBS. Afterwards, oocytes were placed into Texas red-labeled phalloidin staining f-actin diluted 1:40 PBS for f-actin and Pico green 1:2000 PBS for DNA staining.

isolated oocytes = conditions: rodents; cited from earlier work
[2] = system: Human oocytes arrested at GV-stage; experiment: Reversal of meiosis arrest after washing out the inhibitor; type: cell-based
Experimental: DDMP was added at a 10 μM final concentration (0.1% DMSO). Directly after aspiration, single COCs were washed in flushing medium (D-MEM with HEPES) and placed into […] droplets under oil. COCs were randomised over two culture conditions: with and without DDMP. Oocytes cultured with DDMP for 24 hours, 48 hours and 72 hours were studied for reversal of meiosis arrest by washing out the inhibitor. […]
(§1) Evaluation of cumulus morphology expansion in culture related to follicle treatment, resumption of maturation, kinetics of GVBD and polar body extrusion were analysed using the χ^2test and Fisher's exact test for comparison between control and DDMP treated groups. Statistical significance was considered when P<0.05.

Human oocytes (COCs) [3] = experiment: Light and electron microscopy of oocytes arrested by DDMP; type: cell-based
Experimental: During evaluation at 24 hours and 48 hours culture, part of the oocytes with and without DDMP were fixed for EM analysis.
A total of 48 oocytes (4 at time of retrieval, 21 after 24 hours, 20 after 48 hours and 3 after 72 hours culture) were fixed in glutaraldehyde 2.5% in cacodylate buffer at pH 7.3 for at least 2 hours at 4° C. at time 0 h, 24 hours and 48 hours of maturation. All oocytes were embedded individually. Afterwards, they were postfixed in OsO4 1% in H2O for 30 min, stained with uranyl acetate 2% in veronal buffer for 60 min, dehydrated through graded alcohols, embedded in SPURR (Taab; Bodson, Liège, Belgium) and left to polymerize overnight at 70° C.
Semithin sections of 0.5 μm and ultrathin sections of 75 nm were made at approximately 30 levels (range 15-35). The semithin sections were mounted on glass slides and stained with toluidine blue for light microscopical guidance. […]
In order to analyse the effect of PDE 3 inhibition on nuclear and cytoplasm organization, ultrastructural observation was performed at the different culture times in oocytes arrested or not by DDMP. The oocytes analyzed did originate from follicles with diameter between 8-12 mm.

Human oocytes (COCs) [4] = experiment: Meiosis arrest (nuclear maturation stage GV/GVBD/PB) of COCs cultured with DDMP; type: cell-based; conditions: for oocytes still arrested at the GV-stage: 72 hours in DDMP
Experimental: (§2) Patients included in this study were undergoing fertility treatment and were primed with variable doses of gonadotropins while being carefully monitored using serum hormone and vaginal ultrasound monitoring (Human Reproduction 7 (1992), 49 et seq.). Collection of oocytes cumulus complexes (COCs) from different follicle sizes was performed as follows: 1°) during laparoscopic surgery, 2°) aspirated from patients with stimulated ovaries undergoing follicle reduction before intrauterine insemination (to avoid multiple gestation due to multiple ovulation) (Albano et al, 2001) or 3°) during ovum pick up after having aspirated the larger follicles (>15 mm) destinated for IVF treatment (Human Reproduction 7 (1992), 49 et seq.). Basically, these aspirations yielded two types of COC: a first group that had never been exposed to LH activity (pre-hCG) and a second group of follicles 36 h after an exposure to hCG (injected) or endogenous LH (spontaneous LH peak). When possible, follicle diameters were recorded by vaginal ultrasound measurement. COCs used in this study were retrieved from follicles with diameters between 6 and 14 mm.
Human oocytes aspiration was performed by ultrasound-guided transvaginal follicle aspiration using a single lumen needle (Cook, K-OPS-1230-VUB, Switzerland AG) after paracervical infiltration with a local anesthetic. The aspiration pressure used was reduced from the usual 100 mmHg for recovery of mature oocytes to 60 mmHg. Follicles were flushed using HEPES-buffered Earle's medium at least three times.
(§3) At the time of oocyte retrieval only the COCs classified as I or II were placed in culture.
Twenty-four hours later, oocyte stages were recorded and oocytes showing a clear polar body extrusion were removed from culture. After 48 hours, all oocytes were assessed and GV, GVBD and polar body extruded ones were recorded.
(§4) The basal medium used for oocyte culture was D-MEM (D-5280, Life Technologies, Merelbeke, Belgium) with 2 mM Glutamax-1, NaHCO3 (2 g/L) supplemented with 10 mIU/ml FSH (Gonal-F®, kindly donated by Ares Serono, Geneva, Switzerland), 100 ng/ml IGF-I (R&D, UK), 5 ng/ml insulin, 5 ng/ml selenium, 5 μg/ml transferrin (Life technologies, Merelbeke, Belgium) and 0.1% human serum albumin (CAF-DCF, Brussels, Belgium). 17β-E2 (Sigma, Bornem, Belgium) was diluted in ethanol and added to oil to reach a final concentration of 1 μg/ml in the 10 μl medium droplets underneath (this concentration was measured using specific radioimmunoassay). Microdroplets of 10 μl medium, were covered with 2 ml of oil. A refreshment of […] conditioned medium was performed each 24 hours. All cultures were carried out at 37° C. in humidified atmosphere in an incubator gassed with 5% CO2 in air.
(§5) DDMP was added at a 10 μM final concentration (0.1% DMSO). Directly after aspiration, single COCs were washed in flushing medium (D-MEM with HEPES) and placed into […] droplets under oil. COCs were randomised over two culture conditions: with and without DDMP. Oocytes cultured with DDMP for 24 hours, 48 hours and 72 hours were studied for reversal of meiosis arrest by washing out the inhibitor. Reversal of PDE 3 inhibition was performed by mechanical denudation of the remaining somatic cells and placing the oocytes in the conditioned medium for an additional 24-30 h.
as §1

[5] = system: cumulus-corona cells of COCs; experiment: Cumulus cell expansion (COC types I-IV) during culture in the presence of DDMP; type: cell-based, human
Experimental: as §2
The COCs were evaluated immediately after aspiration and after 24 hours and 48 hours culture and classified as follows: type (I), compact mass of 3-5 layers of granulosa cells; type (II), expanded distal layers of granulosa cells (cumulus), but a compact proximal granulosa cell layer; type (III), expanded distal (cumulus) and proximal (corona cells) layers of granulosa cells; and type (IV) partially denuded oocytes due to expanded granulosa cells.
as §3, §4, §5, §1

[6] = inhibitor removal day 2 (48 hours in DDMP), post-hCG, 11 oocytes
[7] = inhibitor removal day 2 (48 hours in DDMP), pre-hCG, 11 oocytes
[8] = inhibitor removal day 3 (72 hours in DDMP), post-hCG, 10 oocytes
[9] = inhibitor removal day 3 (72 hours in DDMP), pre-hCG, 13 oocytes
[10] = post-hCG COCs, 24 hours culture in DDMP 10 μM
[11] = pre-hCG COCs, 24 hours culture in DDMP 10 μM

number of oocytes with nuclei forming a clump of chromosomes at place of metaphase plate ([1]; 24-30 hours after inhibitor removal): Two
morphological aspect of COC (degeneration) (Human oocytes (COCs) [3]; arrested in vitro for 72 hours in presence of DDMP (FIG. 11)): degenerative aspect
SMILES: COc1cc2cc(C3=NNC(=O)CC3C)sc2cc1OC (stereo not shown) [DDMP, 4,5-dihydro-6-(5,6-dimethoxybenzo[b]thien-2-yl)-5-methyl-3(2H)-pyridazinone]
number of oocytes presenting the M II plate 24-30 hours after inhibitor removal ([1]; 3 out of 3 pre-hCG and 9 out of 11 post-hCG): Twelve
M II oocytes with well-aligned chromosomes positioned perpendicular to the oolema ([1]; 24-30 hours after inhibitor removal, control 80.0%): 83.3%
reversibility of blocking effects (isolated oocytes): fully reversible
number of oocytes that progressed to GVBD after inhibitor wash-out ([2]; 48 hours in DDMP, post-hCG, 11 oocytes, 24-30 h in control medium): 11
number of oocytes that progressed to GVBD after inhibitor wash-out ([2]; 48 hours in DDMP, pre-hCG, 11 oocytes, 24-30 h in control medium): 4
number of oocytes that progressed to GVBD after inhibitor wash-out ([2]; 72 hours in DDMP, pre-hCG, 13 oocytes, 24 to 30 hours in conditioned medium): 7
PB (%) 24-30 hours after DDMP removal [2, 6]: 54%
number of oocytes at GVBD (arrested at this stage) 24-30 hours after DDMP removal [2, 6]: 5
number of oocytes at PB 24-30 hours after DDMP removal [2, 6]: 6
PB (%) 24-30 hours after DDMP removal [2, 7]: 27%
number of oocytes at GV 24-30 hours after DDMP removal [2, 7]: 7
number of oocytes at GVBD (arrested at this stage) 24-30 hours after DDMP removal [2, 7]: 1
number of oocytes at PB 24-30 hours after DDMP removal [2, 7]: 3
PB (%) 24-30 hours after DDMP removal [2, 8]: 100%
number of oocytes at PB 24-30 hours after DDMP removal [2, 8]: 10
PB (%) 24-30 hours after DDMP removal [2, 9]: 46%
number of oocytes at GV 24-30 hours after DDMP removal [2, 9]: 6
number of oocytes at GVBD (arrested at this stage) 24-30 hours after DDMP removal [2, 9]: 1
number of oocytes at PB 24-30 hours after DDMP removal [2, 9]: 6
resumption of meiosis after inhibitor removal ([2]; oocytes arrested with DDMP 10 μM): capable of resuming meiosis within the normal time frame
ultrastructural morphological signs of oocyte degeneration (Human oocytes (COCs) [3]; DDMP 10 μM, at least 48 hours culture): without ultrastructural morphological signs of oocyte degeneration
time up to which nuclear arrest could be held on (Human oocytes (COCs) [4]; DDMP 10 μM): up to 72 hours
time for which resumption of meiosis was blocked / meiotic arrest in GV maintained (Human oocytes (COCs) [4]; DDMP 10 μM, COCs from antral follicles): at least 48 hours
oocytes remaining at GV-stage (Human oocytes (COCs) [4]; post-hCG COCs (n=42), 24 hours, DDMP 10 μM, control 22.5%): 92.9%
COCs classified type II at retrieval that remained arrested at the GV-stage (Human oocytes (COCs) [4]; post-hCG COCs of type II at retrieval, 48 hours culture with DDMP): 77.6%
oocytes that extruded a visible polar body (PB) (Human oocytes (COCs) [4]; post-hCG COCs, 24 hours, DDMP 10 μM, control 10.0%): 2.4%
oocytes at the GV-stage (Human oocytes (COCs) [4]; post-hCG COCs, 48 hours, DDMP 10 μM, control 6.0%): 83.3%
oocytes at GVBD (Human oocytes (COCs) [4]; post-hCG COCs, 48 hours, DDMP 10 μM, control 12.1%): 8.3%
oocytes at PB (Human oocytes (COCs) [4]; post-hCG COCs, 48 hours, DDMP 10 μM, control 81.8%): 5.6%
oocytes still arrested at the GV-stage (Human oocytes (COCs) [4]; post-hCG, 10 out of 15): 66.6%
oocytes remaining at GV-stage (Human oocytes (COCs) [4]; pre-hCG COCs (n=39), 24 hours, DDMP 10 μM, control 24.3%): all oocytes remained at GV-stage
oocytes at GVBD (Human oocytes (COCs) [4]; pre-hCG COCs, 48 hours, DDMP 10 μM, control 12.9%): 5.5%
oocytes remaining at GV-stage (Human oocytes (COCs) [4]; pre-hCG COCs, 48 hours, DDMP 10 μM, control 19.3%): 88.9%
oocytes at PB (Human oocytes (COCs) [4]; pre-hCG COCs, 48 hours, DDMP 10 μM, control 64.5%): 2.8%
oocytes still arrested at the GV-stage (Human oocytes (COCs) [4]; pre-hCG, 16 out of 19): 84.2%
influence on expansion and mucification pattern of COC / loss of coupling between somatic cells and oocyte ([5]; DDMP 10 μM versus control medium, before and during culture): not modified; also recorded: no influence
proportion of COCs classified type I ([5]; post-hCG COCs of the DDMP group, at retrieval (0 hour, baseline)): 48.8%
oocytes that had lost connection with cumulus cells (type IV) [5, 10]: 7.1%
proportion of COCs classified type I [5, 10]: 4.7%
proportion of COCs classified type II [5, 10]: 57.1%
proportion of COCs classified type III [5, 10]: 30.9%
oocytes that had lost connections with the somatic cells (type IV) ([5]; post-hCG COCs, 48 hours culture in DDMP 10 μM): 62.1%
proportion of COCs classified type I ([5]; pre-hCG COCs of the DDMP group, at retrieval (0 hour, baseline)): 74.4%
proportion of COCs classified type I [5, 11]: 25.6%
proportion of COCs classified type II [5, 11]: 56.4%
proportion of COCs classified type III [5, 11]: 15.4%
oocytes that had lost their connections with the cumulus cells (type IV) ([5]; pre-hCG COCs, 48 hours culture in DDMP 10 μM): 22.2%
